Experimental data published in the Kinase Knowledgebase extract (Sharma et al. 2016).

Target: MAPK14 (murine)
Experiment: Inhibition of MAPK14 Kinase Activity

SMILES | IC50 [nM]
CC(C)(N)CCc1ccc(Cl)c(C(=O)c2ccc(Nc3ccc(F)cc3F)nc2)c1 | 160
COc1ccc(C#CC(C)(C)N)cc1C(=O)c1ccc(Nc2ccc(F)cc2F)cc1 | 14
O=C(c1ccc(Nc2ccc(F)cc2F)cc1)c1ccccc1Cl | 11
CC(C)(N)C#Cc1ccc(Cl)c(C(=O)c2ccc(Nc3ccc(F)cc3F)cc2)c1 | 6
COc1ccc(CCC(C)(C)N)cc1C(=O)c1ccc(Nc2ccc(F)cc2F)cc1 | 113
COc1ccc(C#CC(C)(C)O)cc1C(=O)c1ccc(Nc2ccc(F)cc2F)nc1 | 54
COc1ccccc1C(=O)c1ccc(Nc2ccc(F)cc2F)cc1 | 38
Cc1nc2cc(Cl)c(C(=O)c3ccc(Nc4ccc(F)cc4F)cc3)cc2[nH]1 | 0.7

Further lines, results first:

IC50 [nM] | SMILES
21 | COc1cc2nc(C)[nH]c2cc1C(=O)c1ccc(Nc2ccc(F)cc2F)nc1
479 | COc1ccc(CCC(C)(C)O)cc1C(=O)c1ccc(Nc2ccc(F)cc2F)nc1
19 | CC(C)(N)C#Cc1ccc(Cl)c(C(=O)c2ccc(Nc3ccc(F)cc3F)nc2)c1
300 | O=C(c1ccc(Nc2ccc(F)cc2F)nc1)c1cc(Br)ccc1Cl
51 | COc1ccc(CCC2(O)CCN(C)CC2)cc1C(=O)c1ccc(Nc2ccc(F)cc2F)cc1
5 | COc1cc2nc(C)[nH]c2cc1C(=O)c1ccc(Nc2ccc(F)cc2F)cc1
1 | COc1ccc(/C=C/C2(O)CCN(C)CC2)cc1C(=O)c1ccc(Nc2ccc(F)cc2F)cc1
8 | COc1ccc(C#CC(C)(C)N)cc1C(=O)c1ccc(Nc2ccc(F)cc2F)nc1
8 | Cc1nc2cc(Cl)c(C(=O)c3ccc(Nc4ccc(F)cc4F)nc3)cc2[nH]1
101 | O=C(c1ccc(Nc2ccc(F)cc2F)nc1)c1ccccc1Cl
